Holding throughout (assay type): cell-based, human
Experiment [1] concerns K562 cells. The experiment is described as follows: cell viability (XTT) of imatinib-sensitive K562 cells. The note with it: K562. As for the experimental part: (§1) The K562 leukemic cell line is obtained from the pleural effusion of a patient with CML. This line is a good model for studying this disease. […] The K562 and ImaR cells are cultivated at 37° C. under 5% CO2 in an RPMI 1640 medium containing 5% fetal bovine serum and supplemented with sodium pyruvate and antibiotics (penicillin-streptomycin).
(§2) FIGS. 1 to 4 reflect the study of the cell viability.
(§3) After the addition of XTT reagent, the absorbance is measured at 490 nm.
as §3, §3
After adding XTT reagent, the absorbance is measured at 490 nm.
On the technique in general: Tetrazolium dyes change colour on reduction, which living cells bring about.

In experiment [2] the test system is ImaR cells. Nature of the experiment: cell viability (XTT) of imatinib-resistant ImaR cells. As for the experimental part:
as §1, §2, §3, §3

Experiment [3] relates to caspase-3. Nature of the experiment: caspase-3 activity (Ac-DEVD-AMC) in K562 cells. To be noted: 24 hours, imatinib 3 μM, AICAR 1 mM, 112 at 2.5 μM, 15, 23, 49 at 10 μM. How it is done:
(§4) The cells are lyzed and 10 μg of proteins are placed in the presence of Ac-DEVD-AMC in a 96-well plate. The fluorescence emission at 460 nm resulting from the release of AMC is then recorded.

In experiment [4] the test system is caspase-3. Nature of the experiment: caspase-3 activity (Ac-DEVD-AMC) in ImaR cells. To be noted: 24 hours, imatinib 3 μM, AICAR 1 mM, 112 at 2.5 μM, 15, 23, 49 at 10 μM. How it is done: as §4
The test system of experiment [5] is K562 cells. The experiment is described as follows: western blot of apoptosis and autophagy markers, K562 cells. To be noted: K562, 24 hours, AICAR 1 mM. As for the experimental part:
(§5) The cells are lyzed and 35 μg of proteins are separated by SDS-PAGE (12 or 14% polyacrylamide gel) and analyzed by western blot with antibodies specific to each of the markers.
On the technique in general: In western blotting, separated proteins are transferred to a membrane and probed.

In experiment [6] the test system is ImaR cells. The experiment is described as follows: western blot of apoptosis and autophagy markers, ImaR cells. The note with it: 24 hours. How it is done: as §5
The test system of experiment [7] is mTOR pathway. The experiment is described as follows: western blot of 4E-BP1 phosphorylation (mTOR pathway), K562 cells. The note with it: 24 hours, imatinib 3 μM, AICAR 1 mM, 82, 112 at 2.5 μM, 15, 23, 191 at 10 μM. As for the experimental part: (§6) The cells are lyzed and 30 μg of proteins are separated by SDS-PAGE (13% polyacrylamide gel) and analyzed by western blot with an antibody specific to the 4E-BP1 protein. The delayed gel migration observed reflects the level of phosphorylation of 4E-BP1.

Experiment [8] deals with mTOR pathway. The experiment is described as follows: western blot of 4E-BP1 phosphorylation (mTOR pathway), ImaR cells. The note with it: 24 hours, imatinib 3 μM, AICAR 1 mM, 82, 112 at 2.5 μM, 15, 23, 191 at 10 μM. How it is done: as §6
Experiment [9] deals with cathepsin-B. The experiment is described as follows: cathepsin-B activity (z-RR-AMC) in K562 cells. To be noted: 24 hours, AICAR 1 mM, 82, 112 at 2.5 μM, 15, 23, 191 at 10 μM. As for the experimental part:
(§7) The cells are lyzed and 5 μg of proteins are placed in the presence of z-RR-AMC in a 96-well plate. The fluorescence emission at 460 nm resulting from the release of AMC is then recorded.

Experiment [10] concerns cathepsin-B. The experiment is described as follows: cathepsin-B activity (z-RR-AMC) in ImaR cells. The note with it: 24 hours, AICAR 1 mM, 82, 112 at 2.5 μM, 15, 23, 191 at 10 μM. How it is done: as §7
[11] abbreviates: 0.5 mM, 24 or 48 hours, Example 1.
Where [12] appears, read: 5, 10, 25 and 50 μM, compounds effective at concentrations as low as 5 μM.
Where [13] appears, read: AICAR 1 mM, compounds 2.5 or 10 μM.

For `NC(=O)c1ncn([C@@H]2O[C@H](CO)[C@@H](O)[C@H]2O)c1N` [AICAR, 5-aminoimidazole-4-carboxamide-1-β-D-ribofuranoside, reference compound], the “reduction in cell viability” value with K562 cells [1] (setting [11]) and in the experiment with ImaR cells [2] (setting [11]) was “cell viability loss” each time. In addition, the “efficacy in dose-response experiment (number of viable cells)” value in the experiment on K562 cells [1] (setting [12]) and in the experiment on ImaR cells [2] (setting [12]) was “ineffective” in each case. In addition, the “increase in the caspase-3 activity (factor with respect to the control)” value in the experiment on caspase-3 [3] and in the experiment with caspase-3 [4] was “incapable of inducing this activation” throughout. The “expression of p62/SQSTM1” value with K562 cells [5] (82, 86, 112 at 2.5 μM, 15, 23, 191 at 10 μM) is recorded as “increase in the expression”; in the experiment on ImaR cells [6] (AICAR 1 mM, 82, 86, 112 at 2.5 μM, 15, 23, 191 at 10 μM), “increase in the expression”. In addition, the “LC3 cleavage (LC3-I into LC3-II)” value with K562 cells [5] (82, 86 at 2.5 μM, 15, 23, 191, 49 at 10 μM) was “cleaved”; in the experiment on ImaR cells [6] (AICAR 1 mM, 82, 86 at 2.5 μM, 15, 23, 191, 49 at 10 μM), “cleaved”. Also, the “AMPK activation (level of phosphorylation)” value in the experiment with K562 cells [5] (compounds 2.5 or 10 μM) and in the experiment on ImaR cells [6] (setting [13]) was “activated” in each case. Further, the “mTOR pathway: phosphorylation of the ribosomal protein S6” value in the experiment on K562 cells [5] (compounds 2.5 or 10 μM) and in the experiment with ImaR cells [6] (setting [13]) was “massive dephosphorylation” in each case. For the same compound, the “phosphorylation of 4E-BP1” value in the experiment on mTOR pathway [7] and in the experiment with mTOR pathway [8] was “total reduction” each time. Besides, the “increase in the cathepsin-B activity (factor)” value in the experiment on cathepsin-B [9] and in the experiment with cathepsin-B [10] was “increase” in each case.

The values above are taken from US9173892B2, “Acadesine derivatives, products and compositions including same, therapeutic uses thereof, and methods for synthesizing same” (Universite Nice Sophia Antipolis, priority 2011, dated 2015).
